Data from patent US20240117405A1, “COLORIMETRIC BIOSENSOR, PREPARATION METHOD THEREOF, AND ANTIBIOTIC SUSCEPTIBILITY TESTING METHOD USING THE SAME” (INHA UNIVERSITY RESEARCH AND BUSINESS FOUNDATION, priority 2022, published 2024).

System: methicillin-resistant Staphylococcus Aureus (MRSA)
Experiment: Antibiotic susceptibility test using encapsulated colorimetric biosensor
Type: cell-based
Conditions: MRSA 10^6 CFU/mL, 37° C.; for time until color change (blue->red) of the colorimetric biosensor: photographed up to 15 hours
Description: An antibiotic susceptibility test was performed on the colorimetric biosensor in encapsulated form prepared in Example 1, and the results are shown in FIG. 5.
Specifically, an encapsulated colorimetric biosensor was prepared from Example 1 and introduced into wells containing 2 and 4 μg/mL of ampicillin antibiotics (See FIGS. 5B and 5C) and 0.25, 2 and 4 μg/mL of vancomycin antibiotics (See FIGS. 5D, 5E, and 5F). Further, for the antibiotic susceptibility test, methicillin-resistant Staphylococcus Aureus (MRSA) bacteria, which are resistant to ampicillin and susceptible to vancomycin, were injected into each well at an amount of 10^6 CFU/mL. For comparative experiments, wells containing only the colorimetric biosensor and bacteria (See FIG. 5A) and wells containing only the colorimetric biosensor (See FIG. 5G) were also prepared. In order to induce the growth of MRSA and the color change of the biosensor accordingly, they were cultured at a temperature of 37° C., and each well plate was photographed at 0, 5, 6, 7, 9, 12, 13 and 15 hours to compare the color change.

Compound | time until color change (blue->red) of the colorimetric biosensor (0.25 μg/mL antibiotic) | time until color change (blue->red) of the colorimetric biosensor (2 μg/mL antibiotic) | time until color change (blue->red) of the colorimetric biosensor (4 μg/mL antibiotic) | susceptibility or resistance of MRSA to the antibiotic as determined by biosensor color change | concentration from which MRSA shows susceptibility (no color change) (tested 0.25, 2 and 4 μg/mL)
CN[C@H](CC(C)C)C(=O)N[C@H]1C(=O)N[C@@H](CC(N)=O)C(=O)N[C@H]2C(=O)N[C@H]3C(=O)N[C@H](C(=O)N[C@H](C(=O)O)c4cc(O)cc(O)c4-c4cc3ccc4O)[C@H](O)c3ccc(c(Cl)c3)Oc3cc2cc(c3O[C@@H]2O[C@H](CO)[C@@H](O)[C@H](O)[C@H]2O[C@H]2C[C@](C)(N)[C@H](O)[C@H](C)O2)Oc2ccc(cc2Cl)[C@H]1O [vancomycin] | 9 h | no color change was observed | no color change was observed | susceptibility | 2 µg/mL
CC1(C)S[C@@H]2[C@H](NC(=O)[C@H](N)c3ccccc3)C(=O)N2[C@H]1C(=O)O [ampicillin] | – | 9 h | 13 h | resistance | –
